According to the supplement of paper PMC10307832:

How the values were obtained:
Experiment in all cases: relative viability (nuclei count vs DMSO), 5 days (fraction); higher = more cells survive
[1] = compound: O=C(C[C@H]1NCCC[C@@H]1O)Cn1cnc2cc(Br)c(Cl)cc2c1=O (racemic) [Halofuginone] + CC(=O)Nc1cccc(-n2c(=O)n(C3CC3)c(=O)c3c(Nc4ccc(I)cc4F)n(C)c(=O)c(C)c32)c1 [Trametinib] (partner 0.02 µM)
Summary of the method: (§1)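 A single step with final 0.05% Triton X-100, 1% formaldehyde and 1 ug/ml Hoechst fixed the cells and stained nuclei 5 days after treatment. Lung cancer cell lines in 1536-well plates had been treated by pin tool the day after seeding with one drug alone or a fixed anchor-drug dose plus five library-drug doses (not always all listed) in √10 steps, and nuclei were counted on 4× images. Relative viability is the ratio of nuclei in treated wells to nuclei in vehicle wells, taken as the median of duplicate plates.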

Cediranib + OSI-027 = compound: COc1cc2c(Oc3ccc4[nH]c(C)cc4c3F)ncnc2cc1OCCCN1CCCC1 [Cediranib] + COc1cccc2cc(-c3nc([C@H]4CC[C@H](C(=O)O)CC4)n4ncnc(N)c34)[nH]c12 [OSI-027] (partner 0.5 µM)
Summary of the method: as §1

Halofuginone + Dasatinib = compound: O=C(C[C@H]1NCCC[C@@H]1O)Cn1cnc2cc(Br)c(Cl)cc2c1=O (racemic) [Halofuginone] + Cc1nc(Nc2ncc(C(=O)Nc3c(C)cccc3Cl)s2)cc(N2CCN(CCO)CC2)n1 [Dasatinib] (partner 0.075 µM)
Summary of the method: as §1

Halofuginone + AZD7762 = compound: O=C(C[C@H]1NCCC[C@@H]1O)Cn1cnc2cc(Br)c(Cl)cc2c1=O (racemic) [Halofuginone] + NC(=O)Nc1cc(-c2cccc(F)c2)sc1C(=O)N[C@H]1CCCNC1 [AZD7762] (partner 0.2 µM)
Summary of the method: as §1

| Cell Line | relative viability ([1]; first compound 0.001 µM) | relative viability ([1]; first compound 0.003162 µM) | relative viability ([1]; first compound 0.01 µM) | relative viability ([1]; first compound 0.03162 µM) | relative viability ([1]; first compound 0.1 µM) | relative viability (Cediranib + OSI-027; first compound 0.04 µM) | relative viability (Cediranib + OSI-027; first compound 0.1265 µM) | relative viability (Cediranib + OSI-027; first compound 0.4 µM) | relative viability (Cediranib + OSI-027; first compound 1.265 µM) | relative viability (Cediranib + OSI-027; first compound 4 µM) | relative viability (Halofuginone + Dasatinib; first compound 0.001 µM) | relative viability (Halofuginone + Dasatinib; first compound 0.003162 µM) | relative viability (Halofuginone + Dasatinib; first compound 0.01 µM) | relative viability (Halofuginone + Dasatinib; first compound 0.03162 µM) | relative viability (Halofuginone + Dasatinib; first compound 0.1 µM) | relative viability (Halofuginone + AZD7762; first compound 0.001 µM) | relative viability (Halofuginone + AZD7762; first compound 0.003162 µM) | relative viability (Halofuginone + AZD7762; first compound 0.01 µM) | relative viability (Halofuginone + AZD7762; first compound 0.03162 µM) | relative viability (Halofuginone + AZD7762; first compound 0.1 µM) |
| --- | --- | --- | --- | --- | --- | --- | --- | --- | --- | --- | --- | --- | --- | --- | --- | --- | --- | --- | --- | --- |
| NCI-H661 | 0.624 | 0.629 | 0.579 | 0.515 | 0.373 | 0.734 | 0.686 | 0.71 | 0.686 | 0.669 | 0.954 | 0.884 | 0.856 | 0.79 | 0.378 | – | – | – | – | – |
| NCI-H1563 | – | – | – | – | – | 0.799 | 1.03 | 0.767 | 0.744 | 0.796 | 0.477 | 0.432 | 0.418 | 0.487 | 0.408 | – | – | – | – | – |
| NCI-H1623 | – | – | – | – | – | 0.426 | 0.442 | 0.477 | 0.423 | 0.392 | 0.588 | 0.43 | 0.523 | 0.468 | 0.394 | – | – | – | – | – |
| NCI-H1648 | 0.46 | 0.449 | 0.582 | 0.495 | 0.497 | 0.284 | – | 0.259 | 0.272 | 0.246 | – | – | – | – | – | 0.742 | 0.608 | 0.631 | 0.854 | 0.694 |
| NCI-H1650 | 0.656 | 0.696 | 0.55 | 0.57 | 0.216 | 0.781 | 0.596 | 0.589 | 0.577 | 0.436 | 0.339 | 0.329 | 0.293 | 0.2 | 0.166 | – | – | – | – | – |
| NCI-H1703 | – | – | – | – | – | – | – | – | – | – | – | – | – | – | – | 0.119 | 0.121 | 0.121 | 0.13 | 0.151 |
| NCI-H2009 | 0.345 | 0.343 | 0.295 | 0.234 | 0.11 | 0.548 | 0.538 | 0.658 | 0.518 | 0.639 | 0.313 | 0.385 | 0.289 | 0.216 | 0.151 | – | – | – | – | – |
